Measurements from ChEMBL document CHEMBL1152153, “Synthesis and activity of novel 1- or 3-(3-amino-1-phenyl propyl)-1,3-dihydro-2H-benzimidazol-2-ones as selective norepinephrine reuptake inhibitors” (Bioorg Med Chem Lett, 2008).

Assays:
[1] = molecular target: T1, Sodium-dependent noradrenaline transporter (Homo sapiens, UniProt P23975); experiment: Inhibition of norepinephrine uptake at human NET expressed in MDCK-Net6 cells at 1 uM; type: cell-based
[2] = molecular target: T1, Sodium-dependent noradrenaline transporter
[3] = molecular target: T2, Sodium-dependent serotonin transporter (Homo sapiens, UniProt P31645); type: cell-based, JAR
Target sequence in this assay (P31645 whole entry): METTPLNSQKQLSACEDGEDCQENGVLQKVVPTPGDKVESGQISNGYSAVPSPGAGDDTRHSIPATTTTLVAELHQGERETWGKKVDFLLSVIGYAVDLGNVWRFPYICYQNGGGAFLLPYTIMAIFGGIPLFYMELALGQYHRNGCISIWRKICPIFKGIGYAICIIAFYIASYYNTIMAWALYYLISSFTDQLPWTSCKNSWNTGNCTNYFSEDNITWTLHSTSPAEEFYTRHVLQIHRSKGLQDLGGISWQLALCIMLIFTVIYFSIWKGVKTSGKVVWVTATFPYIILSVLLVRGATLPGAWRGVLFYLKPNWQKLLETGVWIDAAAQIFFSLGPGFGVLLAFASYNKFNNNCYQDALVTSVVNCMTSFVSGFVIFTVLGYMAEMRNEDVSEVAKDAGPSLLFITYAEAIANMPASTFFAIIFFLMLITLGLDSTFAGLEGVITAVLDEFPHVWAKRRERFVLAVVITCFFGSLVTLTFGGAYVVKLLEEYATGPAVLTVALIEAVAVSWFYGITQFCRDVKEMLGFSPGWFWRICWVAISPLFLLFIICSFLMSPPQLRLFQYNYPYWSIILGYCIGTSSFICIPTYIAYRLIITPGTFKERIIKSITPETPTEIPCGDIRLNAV

Homo sapiens = organism: Homo sapiens; experiment: Ratio of IC50 for human SERT to IC50 for human NET
[4] = molecular target: Sodium-dependent dopamine transporter (Homo sapiens) (UniProt Q01959); experiment: Displacement of [3H]WIN-35428 from human recombinant DAT expressed in CHO cells at 10 uM; type: cell-based
[5] = molecular target: T2, Sodium-dependent serotonin transporter; experiment: Inhibition of serotonin uptake at human SERT expressed in JAR cells at 1 uM; type: cell-based
Target sequence in this assay (P31645 whole entry, looked up): as the sequence (P31645 whole entry) above

[6] = molecular target: T2, Sodium-dependent serotonin transporter; experiment: Inhibition of serotonin uptake at human SERT expressed in JAR cells at 10 uM; type: cell-based
Target sequence in this assay (P31645 whole entry, looked up): as the sequence (P31645 whole entry) above

T1 sequence (P23975 whole entry): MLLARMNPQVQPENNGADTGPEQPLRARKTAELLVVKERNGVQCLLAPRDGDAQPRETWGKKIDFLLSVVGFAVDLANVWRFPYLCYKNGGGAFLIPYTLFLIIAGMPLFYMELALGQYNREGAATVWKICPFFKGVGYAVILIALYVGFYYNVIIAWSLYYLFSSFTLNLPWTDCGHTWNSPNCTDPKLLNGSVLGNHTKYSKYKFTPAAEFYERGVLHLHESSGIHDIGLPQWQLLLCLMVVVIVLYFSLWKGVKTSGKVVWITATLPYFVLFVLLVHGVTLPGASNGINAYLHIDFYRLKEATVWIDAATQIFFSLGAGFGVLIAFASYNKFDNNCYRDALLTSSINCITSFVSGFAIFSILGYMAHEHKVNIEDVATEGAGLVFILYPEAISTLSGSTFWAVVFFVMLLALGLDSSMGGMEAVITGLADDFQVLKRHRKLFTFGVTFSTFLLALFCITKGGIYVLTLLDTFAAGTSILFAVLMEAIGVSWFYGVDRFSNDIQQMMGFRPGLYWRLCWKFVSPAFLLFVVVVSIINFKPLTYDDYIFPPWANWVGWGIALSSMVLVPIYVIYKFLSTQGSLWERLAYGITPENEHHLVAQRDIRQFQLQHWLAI
Chain of Sodium-dependent dopamine transporter (Homo sapiens) (Q01959 whole entry): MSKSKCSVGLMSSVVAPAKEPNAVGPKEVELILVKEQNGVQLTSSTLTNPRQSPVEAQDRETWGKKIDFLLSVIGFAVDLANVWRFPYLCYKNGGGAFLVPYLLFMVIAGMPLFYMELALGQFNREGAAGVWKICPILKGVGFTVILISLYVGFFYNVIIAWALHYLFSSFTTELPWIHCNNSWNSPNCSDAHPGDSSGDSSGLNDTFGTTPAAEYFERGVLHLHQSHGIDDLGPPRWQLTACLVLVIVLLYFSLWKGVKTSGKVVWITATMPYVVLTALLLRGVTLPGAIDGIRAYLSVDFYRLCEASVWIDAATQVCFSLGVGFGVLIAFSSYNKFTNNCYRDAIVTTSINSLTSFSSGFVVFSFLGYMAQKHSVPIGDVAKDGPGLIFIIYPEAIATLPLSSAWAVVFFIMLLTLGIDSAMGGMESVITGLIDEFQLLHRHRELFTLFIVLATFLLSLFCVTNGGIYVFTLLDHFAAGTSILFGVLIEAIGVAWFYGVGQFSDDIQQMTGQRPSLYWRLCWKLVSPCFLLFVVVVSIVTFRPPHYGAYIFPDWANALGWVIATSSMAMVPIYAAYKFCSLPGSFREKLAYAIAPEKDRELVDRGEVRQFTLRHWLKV

| inhibition [1] [%] | IC50 [2] [µM] | IC50 [3] [µM] | Ratio IC50 (Homo sapiens) | inhibition [4] [%] | inhibition [5] [%] | inhibition [6] [%] | Compound |
| --- | --- | --- | --- | --- | --- | --- | --- |
| 27 | – | – | – | – | – | – | CC(C)n1c(=O)n([C@H](CCN(C)C)c2ccccc2)c2c(F)cccc21 |
| – | 0.009 | 3 | 333 | 33 | – | – | CNCC[C@H](c1ccccc1)n1c(=O)n(-c2ccccc2)c2ccccc21 |
| – | – | – | 7 | – | – | – | CNCCC(c1ccccc1)n1ccc2ccccc21 (centres undefined) |
| – | 0.006 | 0.483 | 80 | – | – | – | CNCC[C@H](c1ccccc1)n1c(=O)n(-c2ccccc2F)c2cccc(F)c21 |
| 21 | – | – | – | – | – | – | CNCC[C@@H](c1ccccc1)n1c(=O)n(C(C)C)c2ccccc21 |
| – | 0.215 | 0.273 | – | 23 | – | – | CNCC[C@@H](c1ccccc1)n1c(=O)n(-c2ccccc2)c2ccccc21 |
| – | 0.019 | – | – | 14 | 28 | – | CCn1c(=O)n([C@H](CCNC)c2cccc(F)c2)c2c(F)cccc21 |
| 27 | – | – | – | – | – | – | CCNCC[C@H](c1ccccc1)n1c(=O)n(CC)c2ccccc21 |
| – | 0.121 | 1.91 | 16 | 36 | – | – | CNCC[C@H](c1ccccc1)n1c(=O)sc2ccccc21 |
| – | 1.05 | 1.41 | – | 31 | – | – | CNCC[C@@H](c1ccccc1)n1c(=O)n(C(C)C)c2cccc(F)c21 |
| – | 0.311 | – | – | 24 | 20 | – | CNCC[C@H](c1ccccc1)n1c(=O)n(C2CCCCC2)c2ccccc21 |
| – | 0.201 | – | – | 22 | 16 | – | CNCC[C@H](c1ccccc1)n1c(=O)n(C2CCCC2)c2ccccc21 |
| 51 | – | – | – | – | – | – | CCn1c(=O)n([C@H](CCN)c2ccccc2)c2ccccc21 |
| – | 0.627 | 0.166 | – | 5 | – | – | CCCn1c(=O)n([C@@H](CCNC)c2ccccc2)c2ccccc21 |
| – | 0.022 | – | 450 | 11 | 2 | 53 | CNCC[C@H](c1ccccc1)n1c(=O)n(C(C)C)c2ccccc21 |
| – | 0.463 | – | – | 12 | 10 | – | CNCC[C@H](c1ccccc1)n1c(=O)n(C)c2ccccc21 |
| – | 0.166 | 4.57 | 28 | 7 | – | – | CNCC[C@H](c1ccccc1)n1c(=O)n(C2CC2)c2ccccc21 |
| – | 0.03 | 1.21 | 40 | 5 | – | – | CNCC[C@H](c1ccccc1)n1c(=O)n(C(C)C)c2cccc(F)c21 |
| – | 0.032 | 3.1 | 97 | 3 | – | – | CCCn1c(=O)n([C@H](CCNC)c2ccccc2)c2ccccc21 |
| – | 0.044 | 4.31 | 98 | 4 | – | – | CCn1c(=O)n([C@H](CCNC)c2ccccc2)c2ccccc21 |

| Compound | inhibition [1] [%] | IC50 [2] [µM] | IC50 [3] [µM] | Ratio IC50 (Homo sapiens) | inhibition [4] [%] | inhibition [5] [%] | inhibition [6] [%] |
| --- | --- | --- | --- | --- | --- | --- | --- |
| CNCC[C@@H](c1ccccc1)n1c(=O)n(C2CC2)c2ccccc21 | 25 | – | – | – | – | – | – |
